# Assay results reported in patent publication US20240209004A1, “BORIC ACID DERIVATIVE ACTING AS Beta-LACTAMASE INHIBITOR” (TUOJIE BIOTECH (SHANGHAI) CO., LTD., priority 2021, published 2024).
# Where a name gives a salt, the structure may show the parent alone. Read-outs that look alike come from different tables or passages of the source.
# Assays:
# [1] = Single intravenous administration exposure, pharmacokinetics (Test Example 4); type: in vivo, ICR mice; conditions: ICR, mouse, in vivo, iv
# Protocol: The solutions were prepared on the day of administration and stored at 4° C.
# Single intravenous injections were administered to ICR mice, which were grouped as follows. Blood was collected from the saphenous vein or the fundus venous plexus at 0.083 h, 0.25 h, 0.5 h, 1 h, 2 h, 4 h, 6 h and 12 h after administration (about 0.1 mL/time point). A biological analysis method was developed to determine plasma concentrations at different time points, and related pharmacokinetic parameters were calculated.
# [2] = tested on: cefepime-resistant Acinetobacter baumannii; experiment: MIC in combination with cefepime for drug-resistant bacteria (Test Example 2); type: cell-based; conditions: Acinetobacter baumannii, read-out: CPM MIC
# Protocol: (§1) The biosafety cabinet was sterilized with ultraviolet light for 30 min. Glycerol tubes were taken out of a −80° C. freezer, and streaks were gently formed in the glycerol tubes using inoculating loops. Bacteria were inoculated onto MHIIA solid plates. The plates were incubated overnight in a 37° C. incubator.
# (§2) 30 μL of compound stock solution was added to column 1 of a 96-well v-bottom plate, and DMSO was added to columns 2-10. Subsequently, 15 μL was transferred from column 1 to column 2 using a pipette and well mixed gently, and then 15 μL of solution was transferred from column 2 to column 3; the serial dilution process proceeded to column 10 (200×β-lactamase inhibitor working solutions were prepared). The antibiotic was diluted with a corresponding solvent to form a 1.6 mg/mL solution.
# [3] = tested on: cefepime-resistant Escherichia coli; experiment: as above; type: cell-based; conditions: Escherichia coli, read-out: CPM MIC
# Protocol: as §1, §2
# [4] = tested on: cefepime-resistant Klebsiella pneumoniae; experiment: as above; type: cell-based; conditions: Klebsiella pneumoniae, read-out: CPM MIC
# Protocol: as §1, §2
# [5] = tested on: cefepime-resistant Pseudomonas aeruginosa; experiment: as above; type: cell-based
# Protocol: as §1, §2
# [6] = tested on: cefepime-resistant Klebsiella pneumoniae expressing different types of β-lactamases; experiment: microbe, parasite or virus in culture; type: cell-based; conditions: Klebsiella pneumoniae
# Protocol: as §1
# as §2, with “3:” for “3;”
# [7] = tested on: Pseudomonas aeruginosa ATCC 27853; experiment: CPM MIC for control strain (Test Example 2); type: cell-based; conditions: ATCC27853; control strain Pseudomonas aeruginosa ATCC 27853 (printed range 0.5~4 μg/mL)
# Protocol: as §1, §2
# [8] = tested on: Escherichia coli ATCC 25922; experiment: CPM MIC for control strain (Test Example 2); type: cell-based; conditions: ATCC25922; control strain Escherichia coli ATCC 25922 (printed range 0.016~0.12 μg/mL)
# Protocol: as §1, §2
# [9] = tested on: Klebsiella pneumoniae ATCC BAA-2472; experiment: MIC of β-lactamase inhibitors in the presence of antibiotic (Test Example 1); type: cell-based
# Protocol: (§3) • 1) The antibiotics cefepime and biapenem (purchased from MCE Inc.).
# as §1
# as §2, with “3:” for “3;”, “two antibiotics were” for “antibiotic was”, “with” for “with a”, “solvents” for “solvent”, “form” for “form a”, “solutions.” for “solution.”
# (§4) 1 μL of 200×B-lactamase inhibitor solution and 1 μL of 1.6 mg/mL antibiotic were added to a new 96-well round-bottom plate. The plate that had been incubated overnight was taken out of the incubator, and several monoclones were picked into normal saline using an inoculating loop. The bacterial solution was adjusted to a concentration of about 1.0×10^8CFU/mL and diluted 200-fold with medium, and 198 μL of the resulting bacterial solution was added to the test plate. The test plate was incubated in a 37° C.incubator for 18-24 h. The 96-well plate that had been incubated for 20 h was taken out of the incubator. The concentration that prevented visible bacterial growth was defined as the minimum inhibitory concentration.
# [10] = tested on: Escherichia coli ARLG-2829 (Urine); experiment: as above; type: cell-based; conditions: in the presence of Cefepime (8 ug/mL)
# Protocol: as §3, §1
# as §2, with “3:” for “3;”, “two antibiotics were” for “antibiotic was”, “with” for “with a”, “solvents” for “solvent”, “form” for “form a”, “solutions.” for “solution.”
# as §4
# [11] = tested on: Klebsiella pneumoniae ATCC BAA-1705; experiment: as above; type: cell-based
# Protocol: as §3, §1
# as §2, with “3:” for “3;”, “two antibiotics were” for “antibiotic was”, “with” for “with a”, “solvents” for “solvent”, “form” for “form a”, “solutions.” for “solution.”
# as §4
# [12] = in the presence of Biapenem (8 ug/mL)
# [13] = in the presence of Cefepime (8 ug/mL)
compound,measurement,setting,value
O=C(O)c1c(F)ccc2c1OB(O)[C@@H]1C[C@H]21 [QPX7728 disodium salt],AUC(0-inf),[1]; 10 mg/kg,46 µg·h/mL
same,AUC(0-t),[1]; 10 mg/kg,44.7 µg·h/mL
same,Cmax,[1]; 10 mg/kg,65.8 µg/mL
same,Tmax,[1]; 10 mg/kg,4.98 min
same,t½z,[1]; 10 mg/kg,174 min
same,AUC(0-inf),[1]; 100 mg/kg,300 µg·h/mL
same,AUC(0-t),[1]; 100 mg/kg,297 µg·h/mL
same,Cmax,[1]; 100 mg/kg,399 µg/mL
same,Tmax,[1]; 100 mg/kg,4.98 min
same,t½z,[1]; 100 mg/kg,126 min
"CO/N=C(\C(=O)N[C@@H]1C(=O)N2C(C(=O)[O-])=C(C[N+]3(C)CCCC3)CS[C@H]12)c1csc(N)n1 [CPM, cefepime]",MIC,[2]; strain FDA-CDC AR-BANK#0033,> 8 µg/mL
same,MIC,[2]; strain FDA-CDC AR-BANK#0035,> 8 µg/mL
same,MIC,[2]; strain FDA-CDC AR-BANK#0078,> 8 µg/mL
same,MIC,[3]; strain FDA-CDC AR-BANK#0055,> 8 µg/mL
same,MIC,[3]; strain FDA-CDC AR-BANK#0114,> 8 µg/mL
same,MIC,[3]; strain FDA-CDC AR-BANK#0370,> 8 µg/mL
same,MIC,[3]; strain FDA-CDC AR-BANK#0371,> 8 µg/mL
same,MIC,[4]; strain FDA-CDC AR-BANK#0003,> 8 µg/mL
same,MIC,[4]; strain FDA-CDC AR-BANK#0076,> 8 µg/mL
same,MIC,[4]; strain FDA-CDC AR-BANK#0080,> 8 µg/mL
same,MIC,[4]; strain FDA-CDC AR-BANK#0126,> 8 µg/mL
same,MIC,[4]; strain FDA-CDC AR-BANK#0158,> 8 µg/mL
same,MIC,"[5]; strain FDA-CDC AR-BANK#0246, read-out: CPM MIC",> 8 µg/mL
same,MIC,"[5]; strain FDA-CDC AR-BANK#0439, read-out: CPM MIC",> 8 µg/mL
same,MIC,"[5]; strain FDA-CDC AR-BANK#0441, read-out: CPM MIC",> 8 µg/mL
same,MIC,"[5]; strain FDA-CDC AR-BANK#0444, read-out: CPM MIC",> 8 µg/mL
same,MIC,"[6]; ATCCBAA1705, read-out: MIC, CPM, strain ATCC BAA-1705, KPC-2, TEM, SHV, Class A",> 128 µg/mL
same,MIC,"[6]; ATCCBAA1705, read-out: MIC, single substance (1-1-Na, QPX7728, CPM), strain ATCC BAA-1705, KPC-2, TEM, SHV, Class A",64 µg/mL
same,MIC,"[6]; ATCCBAA1898, read-out: MIC, CPM, strain ATCC BAA-1898, KPC-2, Class A",> 128 µg/mL
same,MIC,"[6]; ATCCBAA1898, read-out: MIC, single substance (1-1-Na, QPX7728, CPM), strain ATCC BAA-1898, KPC-2, Class A",64 µg/mL
same,MIC,"[6]; ATCCBAA1899, read-out: MIC, CPM, strain ATCC BAA-1899, KPC-2, Class A",> 128 µg/mL
same,MIC,"[6]; ATCCBAA1899, read-out: MIC, single substance (1-1-Na, QPX7728, CPM), strain ATCC BAA-1899, KPC-2, Class A",32 µg/mL
same,MIC,"[6]; ATCCBAA2343, read-out: MIC, CPM, strain ATCC BAA-2343, KPC, Class A",> 128 µg/mL
same,MIC,"[6]; ATCCBAA2343, read-out: MIC, single substance (1-1-Na, QPX7728, CPM), strain ATCC BAA-2343, KPC, Class A",128 µg/mL
same,MIC,"[6]; ATCCBAA2470, read-out: MIC, CPM, strain ATCC BAA-2470, NDM-1, Class B",> 128 µg/mL
same,MIC,"[6]; ATCCBAA2470, read-out: MIC, single substance (1-1-Na, QPX7728, CPM), strain ATCC BAA-2470, NDM-1, Class B",> 128 µg/mL
same,MIC,"[6]; read-out: MIC, CPM, strain ARLG-1127 (Urine), KPC, KPC-3, TEM, TEM-1, Class A",> 128 µg/mL
same,MIC,"[6]; read-out: MIC, CPM, strain ARLG-1195, CTM-1 group, SHV, NDM, Class A, B",> 128 µg/mL
same,MIC,"[6]; read-out: MIC, CPM, strain ARLG-1196, CTM-1 group, SHV, NDM, TEM, Class A, B",128 µg/mL
same,MIC,"[6]; read-out: MIC, single substance (1-1-Na, QPX7728, CPM), strain ARLG-1127 (Urine), KPC, KPC-3, TEM, TEM-1, Class A",> 128 µg/mL
same,MIC,"[6]; read-out: MIC, single substance (1-1-Na, QPX7728, CPM), strain ARLG-1195, CTM-1 group, SHV, NDM, Class A, B",64 µg/mL
same,MIC,"[6]; read-out: MIC, single substance (1-1-Na, QPX7728, CPM), strain ARLG-1196, CTM-1 group, SHV, NDM, TEM, Class A, B",128 µg/mL
same,MIC,[7],1 µg/mL
same,MIC,[8],0.0156 µg/mL
O=C(O)c1c2c(cc3c1OB(O)C1CC31)OC(F)(F)O2 (centres unmarked) [Compound 2],Minimum inhibitory concentration,[9]; [12],>16 µg/mL
same,Minimum inhibitory concentration,[9]; [13],>16 µg/mL
same,Minimum inhibitory concentration,[10],>16 µg/mL
same,Minimum inhibitory concentration,[11]; [12],1 µg/mL
same,Minimum inhibitory concentration,[11]; [13],>16 µg/mL
NCCN[C@H]1CC[C@H](CC(=O)N[C@H]2Cc3cccc(C(=O)O)c3OB2O)CC1 [VNRX-5133],Minimum inhibitory concentration,[9]; [12],2 µg/mL
same,Minimum inhibitory concentration,[9]; [13],>16 µg/mL
same,Minimum inhibitory concentration,[10],2 µg/mL
same,Minimum inhibitory concentration,[11]; [12],≤0.03125 µg/mL
same,Minimum inhibitory concentration,[11]; [13],0.25 µg/mL
O=C(O)c1c2c(cc3c1OB(O)C1CC31)OCCO2 (centres unmarked) [Compound 1],Minimum inhibitory concentration,[9]; [12],4 µg/mL
same,Minimum inhibitory concentration,[9]; [13],16 µg/mL
same,Minimum inhibitory concentration,[10],0.5 µg/mL
same,Minimum inhibitory concentration,[11]; [12],≤0.03125 µg/mL
same,Minimum inhibitory concentration,[11]; [13],0.5 µg/mL
